What was measured:
[1] = In vivo pharmacokinetic study of plasma and brain tissue; conditions: mice, 1 mg/kg, intravenous
Description: To determine whether the compounds of the present disclosure are capable of crossing the blood brain barrier (BBB), example compound 160313 was administered to mice in a pharmacokinetic study (1 mg/kg, intravenous) of plasma and brain tissue.
Animal Husbandry: Mice were housed at animal room environment with ventilation 15 times/hour, lighting 12 hours/day, temperature 20° C. to 24° C. and humidity 40% to 70%. The study rooms were disinfected and cleaned prior to the start of the study and the operation area was cleaned after each dosing or sampling during the study conduct. All animals had free access to food and water during the study. The animals had access to Certified Rodent Diet and water ad libitum. The nutritional composition and levels of contaminants of the diet and impurities and contaminants of the water were monitored by third organization. The health status of the animals was evaluated in accordance with accepted animal husbandry procedures and deemed suitable for experimental use. […]
Bioanalytical Method Development: The concentrations of compound in plasma and brain samples were determined using a liquid chromatography with tandem mass spectrometry (LC-MS/MS) based method.

[2] = molecular target: T1, Tau aggregates in P301L-Tau-FL-GFP HEK293 cells (Homo sapiens, UniProt P10636, P618L); assay: Tau degradation assay (APNmAb005 ELISA-based Tau aggregation assay); assay type: cell-based; conditions: 1 μM of compound, 24 hours, P301L-Tau-FL-GFP HEK293 cells seeded with rTg4510 brain lysate; read-out: Activity (reduction of tau aggregates)
T1 construct: express full-length human tau T40 (2N4R) carrying the P301L mutation with a GFP tag; expressed in transfected cells
Description: (A). Cell-based model of Tau inclusion formation: Six month old rTg4510 mouse brain lysates were used as the source of tau seeds, prepared as described in Example 26 above. P301L-Tau-FL-GFP HEK293 cells represent HEK293 cells express full-length human tau T40 (2N4R) carrying the P301L mutation with a GFP tag (P301L-Tau-FL-GFP). 1×10^6 of P301L-Tau-FL-GFP HEK293 cells were cultured on a 6-well plate in culture medium containing DMEM/F-12 (Gibco) supplemented with 10% fetal bovine serum (FBS) (Gibco), 1% Penicillin-Streptomycin (Gibco) and 0.5 mg/ml geneticin (Thermo Fisher Scientific) for 24 hours to reach 70-90% confluency, indicating the cells were ready for transfection. 50 μg of 6-month-old rTg4510 mouse brain lysate was diluted in 400 μL of serum free medium and mixed with 16 μL of lipofectamine 3000 reagent (Thermo Fisher Scientific) diluted in 400 μl of serum free medium. A solution mixture of rTg4510 brain lysate and lipofectamine 3000 was incubated at room temperature for 25 min. The culture media were removed, and then a solution mixture of rTg4510 lysate and lipofectamine 3000 was added to the cells for transfection. The solution mixture was incubated at room temperature for five hours, followed by medium change to 10% fetal bovine serum (FBS). After two-day incubation, Tau aggregates (Tau spots) were induced and images were acquired by ImageXpress Micro Confocal high-content imaging system (Molecular Devices) as described in Example 52 above. Analysis was performed by two customized modules in MetaXpress software (Molecular Devices) for aggregated tau analysis. Output included cell numbers, numbers of tau spots, average intensity of tau spots, and average size of tau spots.
(B). Compound treatment: 100 μL of 3×10^4 cells comprising Tau aggregates, prepared as described above in step (A), were plated on a 96-well plate coated with poly-D-lysine (BD Biosciences) and cultured for 24 hours. Compounds to be tested were dissolved in culture medium containing 0.1% DMSO. Each of test compounds in the concentration of 1, 0.2 and 0.04 μM was added to the cells comprising Tau aggregates and incubated at 37° C. for 24 hours. After that, culture medium was removed, cells were washed with PBS solution and then lysed using 30 μL of lysis buffer (PBS containing 0.3% Triton X-100 and 400 mM NaCl) for one hour at 4° C., and then cell lysate was diluted by 170 μl of PBS containing 400 mM NaCl. Cell lysate was filtrated by a […] filtration plate (Pall) and applied for Tau aggregation assay.
(C). Control cell lysate: control cell lysate was collected from non-seeded cells.
(D). ELISA-based Tau aggregation assay: APNmAb005 ELISA kit for Tau aggregation assay was designed and developed to detect abnormal tau aggregates in buffered solution or cell lysate by using anti-Tau APNmab005 as capture and detection antibody. This antibody is a highly specific antibody bound to human tau aggregates accumulated in mammalian cells. APNmAb005 is recited in PCT Patent Application No. PCT/M2020/057415, filed Aug. 5, 2020, which is incorporated herein by reference.
0.15 μg of APNmAb005 in 100 mM sodium carbonate buffer (pH 9.6) was coated on a high-binding polystyrene 96-well microplate (Greiner Bio-One) at 4° C. overnight. The microplate was washed with PBS followed by treatment with Intercept (PBS) blocking buffer (LI-COR) at room temperature for 2 hours. After that, the microplate was washed with PBS, and then the cell lysate with compound treatment, prepared as described above in step (C), was added into each well of the microplate and incubated at room temperature for 2 hours. The microplate was washed with PBS and then incubated with HRP-conjugated secondary antibody APNmAb005 at room temperature for 3 hours. HRP-conjugated secondary antibody APNmAb005 was prepared using HRP conjugation kit (Abcam,ab102890). The microplate was then washed with PBS and incubated with 100 μL of horseradish peroxidase (HRP) substrate at room temperature. […]

T1 sequence (P10636 1-441 isoform P10636-8 P301L): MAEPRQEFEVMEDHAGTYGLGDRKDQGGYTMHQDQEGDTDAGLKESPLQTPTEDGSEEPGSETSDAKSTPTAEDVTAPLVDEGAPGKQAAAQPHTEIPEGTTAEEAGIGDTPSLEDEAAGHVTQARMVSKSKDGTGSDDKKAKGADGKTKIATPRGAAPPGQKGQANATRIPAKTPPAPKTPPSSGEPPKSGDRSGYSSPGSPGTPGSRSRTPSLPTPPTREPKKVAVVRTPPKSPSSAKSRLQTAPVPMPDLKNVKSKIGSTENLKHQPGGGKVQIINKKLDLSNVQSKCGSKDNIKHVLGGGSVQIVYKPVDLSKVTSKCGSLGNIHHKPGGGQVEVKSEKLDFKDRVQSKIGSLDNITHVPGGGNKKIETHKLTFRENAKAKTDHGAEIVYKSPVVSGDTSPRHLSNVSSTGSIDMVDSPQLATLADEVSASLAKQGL

## CN(C)c1ccc(-c2ccc(-c3nc4ccc(NCCOCCOc5ccc6c(c5)CN(C5CCC(=O)NC5=O)C6=O)cc4s3)cc2)cn1 (centres unmarked) [Compound 160313, 3-[6-[2-[2-[[2-[4-[6-(dimethylamino)pyridin-3-yl]phenyl]-1,3-benzothiazol-6-yl]amino]ethoxy]ethoxy]-3-oxo-1H-isoindol-2-yl]piperidine-2,6-dione]
[1]
  Cmax, Brain: 111 ng/mL
[2]
  inhibition at 1 µM: < 10%
